Assay results taken from publication PMC4078991 (Nature, 2014).
Values belong to the molecule of their own block, whether it stands above or below them.

Legend:
PANX1 [1] = target: T1, PANX1 (Homo sapiens, UniProt Q96RD7); assay type: cell-based; details: Jurkat cells 2h anti-Fas, trovafloxacin 20 μM; for effect on outward current of apoptotic cells: at +80mV; for effect on inward current of apoptotic cells: at -50mV
apoptotic Jurkat cells [2] = assay: Formation of apoptotic bodies from apoptotic Jurkat cells; assay type: cell-based; details: for formation of apoptotic bodies: Jurkat cells, anti-Fas induced apoptosis; for formation of apoptotic bodies in Jurkat cells expressing PANX1 DN mutant: inhibitors of blebbing
apoptotic Jurkat cells [3] = assay: Time-lapse microscopy of apoptotic cell morphology; assay type: cell-based; details: time-lapse imaging
PANX1-GFP = assay: Proteolytic cleavage of PANX1-GFP during apoptosis; assay type: cell-based; details: 500 μM
primary thymocytes = assay type: cell-based, mouse; details: 10 μM
Escherichia coli = assay: Bacterial growth assay; assay type: cell-based; details: 6h incubation, O.D. at 600 nm
PANX1 [4] = target: T1, PANX1; assay: ATP release from apoptotic cells; assay type: cell-based; details: apoptotic Jurkat cells
PANX1 [5] = target: T1, PANX1; assay: TO-PRO-3 uptake by apoptotic Jurkat cells; assay type: cell-based; details: for inhibition of TO-PRO-3 uptake (PANX1-dependent dye uptake) by apoptotic cells: anti-Fas, compound present during apoptosis induction
mouse Panx2 = target: T2, mouse Panx2 (Mus musculus, UniProt Q6IMP4); assay: Whole-cell patch-clamp of Panx2 current in HEK293T cells; assay type: cell-based; details: 20 μM
T2 sequence (Q6IMP4 1-677): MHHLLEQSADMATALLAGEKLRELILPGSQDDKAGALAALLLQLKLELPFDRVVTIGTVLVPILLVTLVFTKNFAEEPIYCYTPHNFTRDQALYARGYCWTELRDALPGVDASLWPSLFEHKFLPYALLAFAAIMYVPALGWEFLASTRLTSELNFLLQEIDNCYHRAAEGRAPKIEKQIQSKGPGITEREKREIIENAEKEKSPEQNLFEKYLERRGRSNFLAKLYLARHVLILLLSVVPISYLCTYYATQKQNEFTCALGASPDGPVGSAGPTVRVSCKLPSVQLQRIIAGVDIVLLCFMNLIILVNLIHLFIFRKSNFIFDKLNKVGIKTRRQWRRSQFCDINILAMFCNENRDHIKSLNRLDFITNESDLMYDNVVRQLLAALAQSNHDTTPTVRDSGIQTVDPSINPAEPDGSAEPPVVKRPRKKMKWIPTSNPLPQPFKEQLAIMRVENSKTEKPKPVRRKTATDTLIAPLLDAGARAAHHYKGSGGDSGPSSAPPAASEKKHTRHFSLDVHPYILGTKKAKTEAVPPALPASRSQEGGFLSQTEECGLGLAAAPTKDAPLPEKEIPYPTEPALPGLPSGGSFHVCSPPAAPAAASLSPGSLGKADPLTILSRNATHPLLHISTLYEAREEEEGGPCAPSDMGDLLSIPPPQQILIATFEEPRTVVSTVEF

caspase 3/7 = assay: Caspase 3/7 activation in Jurkat cells undergoing apoptosis; assay type: cell-based; details: trovafloxacin 40 μM
connexin 43 (Cx43) = connexin 43 (Cx43) (Homo sapiens, UniProt P17302); assay: Whole-cell patch-clamp of Cx43 current in HEK293T cells; assay type: cell-based; details: 20 μM
[6] = cited from earlier work
apoptotic thymocytes = assay: In vivo model of thymic apoptosis; design: species or system mouse; details: wild-type mice, administered with dexamethasone
[7] = cited from earlier work; remark: listed apart in the source

T1 sequence (Q96RD7 1-379 limits assumed): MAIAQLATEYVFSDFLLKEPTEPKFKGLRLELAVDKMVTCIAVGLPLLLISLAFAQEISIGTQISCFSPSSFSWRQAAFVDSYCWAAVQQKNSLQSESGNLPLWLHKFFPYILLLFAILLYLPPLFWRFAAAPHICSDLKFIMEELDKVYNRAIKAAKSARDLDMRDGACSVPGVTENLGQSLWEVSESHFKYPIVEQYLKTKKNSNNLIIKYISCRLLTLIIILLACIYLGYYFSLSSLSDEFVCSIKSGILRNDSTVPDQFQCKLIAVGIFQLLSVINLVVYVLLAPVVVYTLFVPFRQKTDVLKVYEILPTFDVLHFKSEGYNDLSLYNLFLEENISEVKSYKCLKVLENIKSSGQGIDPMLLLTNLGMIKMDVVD
connexin 43 (Cx43), sequence (P17302 2-382 limits assumed, species assumed): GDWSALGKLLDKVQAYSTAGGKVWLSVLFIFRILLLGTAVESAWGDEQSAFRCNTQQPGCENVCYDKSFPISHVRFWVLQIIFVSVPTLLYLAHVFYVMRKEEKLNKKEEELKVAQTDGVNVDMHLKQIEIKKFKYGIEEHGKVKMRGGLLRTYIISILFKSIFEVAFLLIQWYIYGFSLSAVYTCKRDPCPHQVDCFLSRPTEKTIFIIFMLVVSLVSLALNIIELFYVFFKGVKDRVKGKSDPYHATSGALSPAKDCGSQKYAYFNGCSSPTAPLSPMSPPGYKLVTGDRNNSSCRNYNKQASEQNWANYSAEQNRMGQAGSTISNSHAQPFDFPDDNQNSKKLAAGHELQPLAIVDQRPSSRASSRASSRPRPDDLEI

effect on outward current of apoptotic cells (PANX1 [1]): blocked both inward and outward currents
effect on inward current of apoptotic cells (PANX1 [1]): blocked both inward and outward currents
Molecule: CC1(C)[C@@H](OC(=O)CCC(=O)O)CC[C@]2(C)[C@H]3C(=O)C=C4[C@@H]5C[C@@](C)(C(=O)O)CC[C@]5(C)CC[C@@]4(C)[C@]3(C)CC[C@@H]12 [CBX, carbenoxolone]
formation of apoptotic bodies (apoptotic Jurkat cells [2]): promoted formation of apoptotic bodies
formation of apoptopodia (string-like structures) by apoptotic cells (apoptotic Jurkat cells [3]): produced long string-like structures
proteolytic cleavage of PANX1-GFP during apoptosis (PANX1-GFP): not inhibited

Molecule: C[C@@H](N)[C@H]1CC[C@H](C(=O)Nc2ccncc2)CC1 [Y-27632]
formation of apoptotic bodies in Jurkat cells expressing PANX1 DN mutant (apoptotic Jurkat cells [2]): reduce the formation of apoptotic bodies
enhanced formation of apoptotic bodies in apoptotic thymocytes from mice with PANX1 deficiency (primary thymocytes): blunted

Molecule: Cc1ccc2c(c1)C(=O)C1(O)CCN(c3ccccc3)C1=N2 (centres unmarked) [blebbistatin]
formation of apoptotic bodies in Jurkat cells expressing PANX1 DN mutant (apoptotic Jurkat cells [2]): reduce the formation of apoptotic bodies

Molecule: O=C(O)c1cn(C2CC2)c2cc(N3CCNCC3)c(F)cc2c1=O [ciprofloxacin]
Escherichia coli growth (Escherichia coli): inhibit bacterial growth

Molecule: C=C1[C@@H](C)[C@H]2[C@H](Cc3ccccc3)NC(=O)[C@]23[C@H](OC(C)=O)/C=C/[C@@](C)(O)C(=O)[C@@H](C)C/C=C/[C@H]3[C@@H]1O [cytochalasin D]
formation of apoptotic bodies in Jurkat cells expressing PANX1 DN mutant (apoptotic Jurkat cells [2]): reduce the formation of apoptotic bodies

inhibition of ATP release from apoptotic cells (PANX1 [4]): partially inhibited ATP release
Molecule: CN1CCN(c2cc3c(cc2F)c(=O)c(C(=O)O)cn3-c2ccc(F)cc2)CC1 [difloxacin]
inhibition of TO-PRO-3 uptake (PANX1-dependent dye uptake) by apoptotic cells (PANX1 [5]): partially inhibited ATP release and TO-PRO-3 uptake
formation of apoptotic bodies (apoptotic Jurkat cells [2]): promoted the formation of apoptotic bodies

inhibition of TO-PRO-3 uptake (PANX1-dependent dye uptake) by apoptotic cells (PANX1 [5]): did not block PANX1-dependent dye uptake
Molecule: C[C@H]1COc2c(N3CCN(C)CC3)c(F)cc3c(=O)c(C(=O)O)cn1c23 [levofloxacin]
Escherichia coli growth (Escherichia coli): inhibit bacterial growth

Molecule: CCCN(CCC)S(=O)(=O)c1ccc(C(=O)O)cc1 [probenecid]
formation of apoptotic bodies (apoptotic Jurkat cells [2]): promoted formation of apoptotic bodies

Molecule: Cc1ccc(C(=O)Nc2ccc(S(=O)(=O)O)c3cc(S(=O)(=O)O)cc(S(=O)(=O)O)c23)cc1NC(=O)c1cccc(NC(=O)Nc2cccc(C(=O)Nc3cc(C(=O)Nc4ccc(S(=O)(=O)O)c5cc(S(=O)(=O)O)cc(S(=O)(=O)O)c45)ccc3C)c2)c1 [suramin]
formation of apoptotic bodies (apoptotic Jurkat cells [2]): did not enhance formation of apoptotic bodies

inhibition of ATP release from apoptotic cells (PANX1 [4]): partially inhibited ATP release
Molecule: NC1CCN(c2nc3c(cc2F)c(=O)c(C(=O)O)cn3-c2ccc(F)cc2F)C1 (centres unmarked) [tosulfoxacin, tosufloxacin]
inhibition of TO-PRO-3 uptake (PANX1-dependent dye uptake) by apoptotic cells (PANX1 [5]): partially inhibited ATP release and TO-PRO-3 uptake
formation of apoptotic bodies (apoptotic Jurkat cells [2]): promoted the formation of apoptotic bodies

inhibition of ATP release from apoptotic cells (PANX1 [4]): inhibited ATP release
inhibition of PANX2 current (mouse Panx2): did not inhibit
inhibition of connexin 43 gap junction current (connexin 43 (Cx43)): did not inhibit
inhibition of TO-PRO-3 uptake (PANX1-dependent dye uptake) by apoptotic cells (PANX1 [5]): potent inhibitor of TO-PRO-3 uptake
TO-PRO-3 uptake after acute treatment of cells already undergoing apoptosis (PANX1 [5]; compound added post induction of apoptosis, 20 min): acutely blocked TO-PRO-3 uptake
effect on outward current of apoptotic cells (PANX1 [1]): minimal effect on outward current
effect on inward current of apoptotic cells (PANX1 [1]): rapidly inhibited the inward current
Molecule: N[C@@H]1[C@H]2CN(c3nc4c(cc3F)c(=O)c(C(=O)O)cn4-c3ccc(F)cc3F)C[C@@H]12 [trovafloxacin]
caspase 3/7 activation during apoptosis (caspase 3/7): did not inhibit caspase 3/7 activation
Escherichia coli growth (Escherichia coli): inhibit bacterial growth
concentrations normally achieved in human plasma [6]: 2000 to 10000 nM
formation of apoptotic bodies (apoptotic Jurkat cells [2]): promoted the formation of apoptotic bodies in a concentration-dependent manner
fragmentation of apoptotic thymocytes in vivo (SSC high particles) (apoptotic thymocytes): promoted the fragmentation of the apoptotic thymocytes
formation of apoptopodia (string-like structures) by apoptotic cells (apoptotic Jurkat cells [3]): produced long string-like structures
side effects linked to use in patients [7]: serious adverse side effects

Molecule: apyrase
formation of apoptotic bodies (apoptotic Jurkat cells [2]): did not promote the formation of apoptotic bodies
